# Values joined by “and” are separate entries in the source; they are usually repeats but may differ in a detail not shown here. Identical values can stand only once. Like-named read-outs stand apart in the source and are kept apart here.
# Target: T1, canine TRPM8 (Canis lupus familiaris, UniProt Q1A7N1)
# T1 construct: expressed in transfected cells
# Test: In vitro canine TRPM8 functional assay (Ca2+-sensitive dye, FLIPR/FDSS, icilin activation)
# Format: cell-based
# Settings: HEK293 cells expressing canine TRPM8, icilin activation; for % I (0.5 μM): 0.5 μM compound; for IC50: eight-point dose-response; for % I (1 μM): 1 μM compound; for % I (5 μM): 5 μM compound
# Experimental: The functional activity of compounds of Formula (I) was determined by measuring changes in intracellular calcium concentration using a Ca^2+-sensitive fluorescent dye. The changes in fluorescent signal were monitored by a fluorescence plate reader, either a FLIPR™ (Molecular Devices) or FDSS (Hamamatsu).
# HEK293 cells stably expressing canine TRPM8 were routinely grown as monolayers in Dulbecco's minimum essential medium supplemented with 10% FBS, 1 mM L-glutamine, 100 units/mL penicillin, 100 ug/mL streptomycin and 400 μg/mL G418. Cells were maintained in 5% CO2 at 37° C. At 24 hrs prior to assay, cells were seeded in clear-base poly-D-lysine coated 384-well plates (BD Biosciences, NJ, USA) at a density of 5,000 cells per well in culture medium and grown overnight in 5% CO2 at 37° C. On assay day, growth media was removed and cells were loaded with Calcium 3 Dye (Molecular Devices) for 35 min at 37° C., under 5% CO2 and then for 25 min at room temperature and atmosphere. Subsequently, cells were tested for agonist-induced increases in intracellular Ca^2+ levels using FLIPR™ or FDSS. Cells were challenged with a compound of Formula (I) (at varying concentrations) and intracellular Ca^2+ was measured for 5 min prior to the addition of icilin to all wells to achieve a final concentration which produces approximately an 80% maximal response.
# Basal FI was subtracted prior to normalizing data to percent of maximal response. Curves were generated using the average of quadruplicate wells for each data point, were analyzed using nonlinear regression of either sigmoidal dose response or sigmoidal dose response (variable slope). Finally, the EC50 and IC50 values were calculated with the best-fit dose curve determined by GraphPad Prism.
# [1] = HEK293, 1 μM compound, read-out: % I (1 μM)
# [2] = HEK293, read-out: % I (1 μM), 1 μM compound
# T1 sequence (Q1A7N1 1-1104): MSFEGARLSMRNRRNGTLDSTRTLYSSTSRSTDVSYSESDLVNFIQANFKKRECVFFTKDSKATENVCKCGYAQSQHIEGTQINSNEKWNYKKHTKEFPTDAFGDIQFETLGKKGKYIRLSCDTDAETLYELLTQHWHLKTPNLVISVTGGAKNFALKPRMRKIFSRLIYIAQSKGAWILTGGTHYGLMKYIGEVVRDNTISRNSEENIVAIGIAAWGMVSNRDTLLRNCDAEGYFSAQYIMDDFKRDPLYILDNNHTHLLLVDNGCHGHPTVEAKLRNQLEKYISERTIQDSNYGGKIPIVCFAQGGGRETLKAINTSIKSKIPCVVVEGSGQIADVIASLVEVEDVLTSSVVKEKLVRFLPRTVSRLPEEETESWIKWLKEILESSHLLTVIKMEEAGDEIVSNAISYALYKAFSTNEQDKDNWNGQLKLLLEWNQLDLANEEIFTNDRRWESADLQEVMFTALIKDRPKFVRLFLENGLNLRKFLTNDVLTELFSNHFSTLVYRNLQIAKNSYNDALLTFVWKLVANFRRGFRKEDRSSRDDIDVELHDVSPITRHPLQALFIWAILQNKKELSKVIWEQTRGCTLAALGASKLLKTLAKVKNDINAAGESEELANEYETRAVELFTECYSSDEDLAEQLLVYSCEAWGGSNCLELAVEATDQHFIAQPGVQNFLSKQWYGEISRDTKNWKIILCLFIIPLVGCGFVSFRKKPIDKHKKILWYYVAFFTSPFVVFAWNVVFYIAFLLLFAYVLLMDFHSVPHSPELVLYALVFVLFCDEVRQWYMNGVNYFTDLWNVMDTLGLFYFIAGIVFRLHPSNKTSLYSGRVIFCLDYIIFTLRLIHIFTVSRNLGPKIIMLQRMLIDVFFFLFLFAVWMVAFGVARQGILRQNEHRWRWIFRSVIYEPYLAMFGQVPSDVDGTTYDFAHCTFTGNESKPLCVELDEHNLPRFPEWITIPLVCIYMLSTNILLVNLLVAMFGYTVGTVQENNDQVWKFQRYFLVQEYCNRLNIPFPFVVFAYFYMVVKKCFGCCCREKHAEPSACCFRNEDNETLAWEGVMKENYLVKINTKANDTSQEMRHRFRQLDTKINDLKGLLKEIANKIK
Compound,% I (0.5 μM),IC50 (read-out: IC50) [µM],also measured
CCOP(=O)(OCC)C(Cc1ccc(C(F)(F)F)cc1F)c1sc2ccccc2c1Br (racemic) [Cpd 150],103%,0.09,
CC(C)OP(=O)(OC(C)C)C(Cc1cccc(O)c1)c1sc2ccccc2c1Br (stereo not shown) [Cpd 325],97%,0.01,
CC(C)OP(=O)(OC(C)C)C(Cc1cc(F)cc(Cl)c1)c1sc2ccccc2c1Cl (stereo not shown) [Cpd 186],104%,0.051,
CCOP(=O)(OCC)C(Cc1ccc(F)cc1Cl)c1sc2ccccc2c1C (stereo not shown) [Cpd 27],,0.11,% I (1 μM): 99%
"CC(C)OP(=O)(OC(C)C)[C@H](Cc1ccc(F)c(C(F)(F)F)c1)c1sc2ccccc2c1Br [Cpd 243, (R)-[1-(3-Bromo-benzo[b]thiophen-2-yl)-2-(4-fluoro-3-trifluoromethyl-phenyl)-ethyl]-phosphonic acid diisopropyl ester]",,0.089,"inhibition at 0.5 µM (HEK293, 0.5 μM compound, read-out: % I (0.5 μM)): 80%"
CCOP(=O)(OCC)C(Cc1cc2c(cc1Cl)OCO2)c1sc2ccccc2c1C (stereo not shown) [Cpd 71],,0.36,% I (1 μM): 98%
CCOP(=O)(OCC)C(Cc1ccc(F)cc1Cl)c1cc2ccccc2s1 (stereo not shown) [Cpd 98],,0.71,% I (1 μM): 79%
"Cc1c(C(Cc2ccc(F)c(F)c2)P(=O)(OC(C)C)OC(C)C)sc2ccc(Cl)cc12 (stereo not shown) [Cpd 92, [1-(5-Chloro-3-methyl-benzo[b]thiophen-2-yl)-2-(3,4-difluoro-phenyl)-ethyl]-phosphonic acid diisopropyl ester]",,0.58,inhibition at 1 µM [1]: 91%
CCOP(=O)(OCC)C(Cc1ccc2ccccc2c1)c1sc2ccccc2c1C (stereo not shown) [Cpd 46],,0.167,% I (1 μM): 99%
"CCOP(=O)(Cc1cc2ccccc2s1)OCc1ccccc1C (stereo not shown) [Cpd 104, Benzo[b]thiophen-2-ylmethyl-phosphonic acid ethyl ester 2-methyl-benzyl ester]",,,% I (5 μM): 99%; inhibition at 1 µM [2]: 53%; IC50 (IC50 (μM)): 0.96 µM
CCOP(=O)(OCC)C(Cc1ccc(F)c(F)c1)c1sc2ccccc2c1-c1ccsc1 (racemic) [Cpd 208],104%,0.104,
CCOP(=O)(OCC)C(Cc1cc(F)cc(C(F)(F)F)c1)c1sc2ccccc2c1Br (stereo not shown) [Cpd 140],102%,0.056,
"CCOP(=O)(OCC)C(Cc1ccc(F)c(F)c1)c1sc2c(F)cccc2c1C (stereo not shown) [Cpd 8, [2-(3,4-Difluoro-phenyl)-1-(7-fluoro-3-methyl-benzo[b-]thiophene-2-yl)-ethyl]-phosphonic acid diethyl ester]",,,inhibition at 1 µM [2]: 100%; IC50 (IC50 (μM)): 0.037 µM
CC(C)OP(=O)(OC(C)C)C(Cc1cccc(Cl)c1F)c1sc2ccccc2c1Cl (stereo not shown) [Cpd 185],103%,0.071,
COc1cc(CC(c2sc3ccccc3c2Br)P(=O)(OC(C)C)OC(C)C)ccc1F (racemic) [Cpd 157],103% and 98%,,
CCOP(=O)(OCC)C(Cc1cc(F)cc(C(F)(F)F)c1)c1sc2ccccc2c1Cl (stereo not shown) [Cpd 278],103%,0.159,
CC(C)OP(=O)(OC(C)C)C(Cc1ccccc1)c1sc2ccccc2c1Cl (stereo not shown) [Cpd 179],103%,0.068,
CCOP(=O)(OCC)C(Cc1ccc(F)c(F)c1)c1sc2ccccc2c1-c1ccccc1O (racemic) [Cpd 215],101%,0.085,
CCOP(=O)(OCC)C(Cc1ccccc1C(F)(F)F)c1cc2ccccc2s1 (stereo not shown) [Cpd 102],,0.75,% I (1 μM): 86%
CCOP(=O)(OCC)C(Cc1cc(C(F)(F)F)ccc1Cl)c1sc2ccccc2c1Cl (stereo not shown) [Cpd 274],95%,0.301,

Compound,% I (0.5 μM),IC50 (read-out: IC50) [µM],also measured
"Cc1ccc2sc(C(Cc3ccc(F)c(F)c3)P(=O)(OC(C)C)OC(C)C)c(C)c2c1 (stereo not shown) [Cpd 62, 2-(3,4-Difluoro-phenyl)-[1-(3,5-dimethyl-benzo[b]thiophen-2-yl)-ethyl]-phosphonic acid diisopropyl ester]",,0.29,inhibition at 1 µM [1]: 95%
CC(C)OP(=O)(OC(C)C)C(Cc1ccc(C(F)(F)F)cc1)c1sc2ccccc2c1Cl (stereo not shown) [Cpd 175],104%,0.072,
CC(C)OP(=O)(OC(C)C)C(Cc1ccccc1C(F)(F)F)c1sc2ccccc2c1Cl (racemic) [Cpd 173],103%,0.14,
"CCOP(=O)(OCC)C(Cc1ccc(Cl)c(Cl)c1)c1sc2ccccc2c1-c1ccccc1 (stereo not shown) [Cpd 64, [2-(3,4-Dichloro-phenyl)-1-(3-phenyl-benzo[b]thiophen-2-yl)-ethyl]-phosphonic acid diethyl ester]",,,inhibition at 1 µM [2]: 64%; IC50 (IC50 (μM)): 0.3 µM
"CCOP(=O)(OCC)C(Cc1ccc(F)c(F)c1)C1=C(C)c2ccccc2S1(=O)=O (stereo not shown) [Cpd 88, [2-(3,4-Difluoro-phenyl)-1-(3-methyl-1,1-dioxo-1H-1λ^6-benzo-[b]thiophen-2-yl)-ethyl]-phosphonic acid diethyl ester]",,,inhibition at 1 µM [2]: 80%; IC50 (IC50 (μM)): 0.5 µM and 0.54 µM
CC(C)OP(=O)(OC(C)C)C(Cc1ccc(S(=O)(=O)C(F)(F)F)cc1)c1sc2ccccc2c1Cl (stereo not shown) [Cpd 264],103%,0.029,
"[2-(3,4-Difluoro-phenyl)-1-(3-methyl-benzo[b]thiophene-2-yl)-ethyl]-[3-(4-methoxy-phenyl)-propyl]-phosphonic acid ethyl ester [Cpd 135]",,0.41,% I (1 μM): 90%
COc1ccc(CC(c2sc3ccccc3c2Br)P(=O)(OC(C)C)OC(C)C)c(F)c1 (racemic) [Cpd 163],103%,0.02,
CCOP(=O)(OCC)C(Cc1cc(O)c(Cl)cc1F)c1sc2ccccc2c1Br (racemic) [Cpd 231],98%,0.122,
CC(C)OP(=O)(OC(C)C)C(Cc1ccccc1F)c1sc2ccccc2c1Br (stereo not shown) [Cpd 196],,0.048,% I (1 μM): 100%
CC(C)OP(=O)(OC(C)C)C(Cc1ccc(Cl)c(C(F)(F)F)c1)c1sc2ccccc2c1Cl (racemic) [Cpd 167],104%,0.097,
"Cc1c(C(OCc2ccc(F)c(F)c2)P(=O)(CC(C)C)CC(C)C)sc2ccccc12 (stereo not shown) [Cpd 13, 2-[(3,4-Difluoro-benzyloxy)-(diisobutyl-phosphinoyl)-methyl]-3-methyl-benzo[b]thiophene]",,0.046,inhibition at 1 µM [1]: 100%
CCOP(=O)(OCC)C(Cc1ccccc1C)c1cc2ccccc2s1 (stereo not shown) [Cpd 89],,0.52,% I (1 μM): 91%; % I (5 μM): 100%
CCOP(=O)(OCC)C(Cc1cc(F)cc(Cl)c1)c1sc2ccccc2c1Br (stereo not shown) [Cpd 259],103%,0.023,
Cc1c(C(Cc2ccc(F)c(F)c2)P(=O)(OC(C)C)OC(C)C)oc2cccc(F)c12 (stereo not shown) [Cpd 202],,0.053,% I (1 μM): 103%
CCOP(=O)(OCC)C(Cc1ccc(C(F)(F)F)c(F)c1)c1sc2ccccc2c1Br (racemic) [Cpd 144],101%,0.058,
CCOP(=O)(OCC)C(Cc1ccc(C(F)(F)F)c(F)c1)c1sc2ccccc2c1Cl (stereo not shown) [Cpd 273],103%,0.116,
CCC(C)P(=O)(C(C)CC)C(Cc1ccc(F)c(F)c1)c1sc2ccccc2c1Br (stereo not shown) [Cpd 203],,0.457,% I (1 μM): 96%
CCOP(=O)(OCC)C(Cc1ccc(F)c(C(F)(F)F)c1)c1sc2cccc(F)c2c1Br (racemic) [Cpd 223],102%,0.052,

# — patent publication US20080287398A1, “COLD MENTHOL RECEPTOR-1 ANTAGONISTS” (priority 2007, published 2008)
